Experimental data taken from paper PMC3172808 (Journal of medicinal chemistry, 2011).

Experiments:
[1] = tested on: renal carcinoma cell line 786-0; test: potency toward MDR-1 expressing 786-0 cells with and without verapamil; assay type: cell-based
aqueous solubility = assay type: physicochemical
[2] = over 24 h; ref [16]; cited from earlier work
[3] = rodents; ref [7]–[9]; cited from earlier work
A2780ADR = test: potency toward A2780ADR; assay type: cell-based, human; conditions: read-out: drug IC50 A2780ADR; adriamycin resistant, MDR-1 overexpression
A2780cis = test: potency toward A2780cis; assay type: cell-based, human; conditions: read-out: drug IC50 A2780cis; cisplatin resistant
MCF-7 cancer cells = conditions: read-out: MCF-7 IC50; Table 1; ref [17]–[20]; cited from earlier work
[4] = tested on: MDA-MB-231 breast cancer model; conditions: continued dosing at 40 mg/kg (½MTD), ref [16], cited from earlier work

In the case of COc1cc(C(=O)c2c(C)oc3c(O)c(OC)ccc23)cc(OC)c1OC [Compound 8, 7-hydroxy-6-methoxy-2-methyl-3-(3,4,5-trimethoxybenzoyl)benzo-[b]furan], the MDR-1 transporter substrate [1] is given as “not a substrate for the MDR-1 transporter”, the aqueous solubility (aqueous solubility) is given as “poor” and the “clearance from healthy tissues” value [2] is given as “completely cleared from healthy tissues over 24 h”.
For COc1cc2c(c(OC)c1OC)-c1ccc(OC)c(=O)cc1[C@@H](NC(C)=O)CC2 [Compound 1, colchicine], the LD50 [3] is listed as less than 5 mg/kg.
In the case of N.N.[Cl][Pt][Cl] [cisplatin], the IC50 (A2780ADR) is reported as 1100 nM and the IC50 (A2780cis) is reported as 5020 nM.
In the case of COc1ccc(-c2sccc2C(=O)c2cc(OC)c(OC)c(OC)c2)cc1O [Compound 14], the IC50 (MCF-7 cancer cells) is listed as 300 ± 400 nM.
In the case of COc1cc(C(=O)c2c(C)oc3c(OP(=O)([O-])[O-])c(OC)ccc23)cc(OC)c1OC.[Na+].[Na+] [Compound 9, Disodium (6-Methoxy-2-methyl-3-(3,4,5-trimethoxybenzoyl)benzofuran-7-yl)phosphate], the “complete eradication of tumors, % of the mice” value ([4]; after 70 days) is listed as 14% and the “tumor growth on continued dosing” value [4] is listed as “completely suppresses tumor growth”.
